Measured values: patent US12390441B2, “Immunomodulating o-het/aryl azalides” (Zoetis Services LLC, priority 2020, dated 2025)
Values joined by “and” are separate entries in the source; they are usually repeats but may differ in a detail not shown here. Identical values can stand only once.

Tests used:
Test in all cases: Whole blood assay, LPS stimulation, MSD cytokine detection
TNF-α = type: cell-based; details: fresh whole bovine blood
Experimental: (§1) Compounds of the invention were evaluated against a positive control for their ability to inhibit LPS-induced IL-1p and TNF-α as an overall evaluation of relative potency and modulation of target pathways.
(§2) In the bovine whole blood in vitro screening assay the inhibition of TNFα as induced by stimulation by lipopolysaccharide (LPS) and as measured by half the maximal inhibitory concentration (IC50) is recognized as the primary biomarker of immunomodulation potency upon pretreatment with the compounds of the invention. IL-1β is a mediator of the inflammation response and is involved in a number of cellular activities including proliferation, differentiation and apoptosis. IL-1β is also released upon cellular stress or cytotoxicity or upon TLR stimulation. In the bovine whole blood assay the stimulation of IL-1β release upon increasing concentration of test compound is seen as a potential cellular toxicity signal as induced by the test compound. In order to estimate a therapeutic index from the in vitro assay a differential between the TNFα IC50 (immunomodulation potency) versus the perceived cellular toxicity concentration (IL-1β release or overstimulation) was utilized. […] As the in vitro assay index approaches 1 it is proposed that the balance between immunomodulation and cytotoxicity would be too narrow in order to achieve an efficacious dose in vivo.

IL-1β = type: cell-based, bovine; details: fresh whole bovine blood, LPS stimulation; drug concentration giving overstimulation (OS) of IL-1β
Experimental: as §1, §2

IL-6 = type: cell-based; details: fresh whole bovine blood

| Structure (SMILES) | IC50 (TNF-α) [µM] | IC50 (IL-6) | IL-1ß OS of LPS (IL-1β) |
| --- | --- | --- | --- |
| CC[C@H]1OC(=O)[C@H](C)[C@@H](O[C@H]2C[C@@](C)(OC)[C@@H](O)[C@H](C)O2)[C@H](C)[C@@H](O[C@@H]2O[C@H](C)C[C@H](N(C)C)[C@H]2Oc2ccc(F)cc2)[C@](C)(O)C[C@@H](C)CN(C)[C@H](C)[C@@H](O)[C@]1(C)O [Example A-23] | 5 | 50 µM | 6 µM |
| CC[C@H]1OC(=O)[C@H](C)[C@@H](O[C@H]2C[C@@](C)(OC)[C@@H](O)[C@H](C)O2)[C@H](C)[C@@H](O[C@@H]2O[C@H](C)C[C@H](N(C)C)[C@H]2Oc2ccc3ccncc3c2)[C@](C)(O)C[C@@H](C)CN(C)[C@H](C)[C@@H](O)[C@]1(C)O [Example A-24] | 19 | 24 µM | 40 µM |
| CC[C@H]1OC(=O)[C@H](C)[C@@H](O[C@H]2C[C@@](C)(OC)[C@@H](O)[C@H](C)O2)[C@H](C)[C@@H](O[C@@H]2O[C@H](C)C[C@H](N(C)C)[C@H]2Oc2ccc(F)c(C#N)c2)[C@](C)(O)C[C@@H](C)CN(C)[C@H](C)[C@@H](O)[C@]1(C)O [Example A-25] | 3 | 12 µM | 16 µM |
| CC[C@H]1OC(=O)[C@H](C)[C@@H](O[C@H]2C[C@@](C)(OC)[C@@H](O)[C@H](C)O2)[C@H](C)[C@@H](O[C@@H]2O[C@H](C)C[C@H](N(C)C)[C@H]2Oc2cnc3ccccc3c2)[C@](C)(O)C[C@@H](C)CN(C)[C@H](C)[C@@H](O)[C@]1(C)O [Example A-28] | 3 | 11 µM | 16 µM |
| CC[C@H]1OC(=O)[C@H](C)[C@@H](O[C@H]2C[C@@](C)(OC)[C@@H](O)[C@H](C)O2)[C@H](C)[C@@H](O[C@@H]2O[C@H](C)C[C@H](NC)[C@H]2Oc2cnc(Cl)cc2C)[C@](C)(O)C[C@@H](C)CN(C)[C@H](C)[C@@H](O)[C@]1(C)O [Example A-29] | 7 | 9 µM | 10 µM |
| CC[C@H]1OC(=O)[C@H](C)[C@@H](O[C@H]2C[C@@](C)(OC)[C@@H](O)[C@H](C)O2)[C@H](C)[C@@H](O[C@@H]2O[C@H](C)C[C@H](NC)[C@H]2Oc2ccc(OC)c(OC(C)C)c2)[C@](C)(O)C[C@@H](C)CN(C)[C@H](C)[C@@H](O)[C@]1(C)O [Example A-34] | 4 | 21 µM | >250 µM |
| CC[C@H]1OC(=O)[C@H](C)[C@@H](O[C@H]2C[C@@](C)(OC)[C@@H](O)[C@H](C)O2)[C@H](C)[C@@H](O[C@@H]2O[C@H](C)C[C@H](N(C)C)[C@H]2Oc2cc(OC)ccc2OC)[C@](C)(O)C[C@@H](C)CN(C)[C@H](C)[C@@H](O)[C@]1(C)O [Example A-35] | 4 | 11 µM | 40 µM |
| CC[C@H]1OC(=O)[C@H](C)[C@@H](O[C@H]2C[C@@](C)(OC)[C@@H](O)[C@H](C)O2)[C@H](C)[C@@H](O[C@@H]2O[C@H](C)C[C@H](NC)[C@H]2Oc2ccccc2C#N)[C@](C)(O)C[C@@H](C)CN(C)[C@H](C)[C@@H](O)[C@]1(C)O [Example A-36] | 13 | 13 µM | 100 µM |
| CC[C@H]1OC(=O)[C@H](C)[C@@H](O[C@H]2C[C@@](C)(OC)[C@@H](O)[C@H](C)O2)[C@H](C)[C@@H](O[C@@H]2O[C@H](C)C[C@H](NC)[C@H]2Oc2cccc(S(=O)(=O)CC)c2)[C@](C)(O)C[C@@H](C)CN(C)[C@H](C)[C@@H](O)[C@]1(C)O [Example A-41] | 5 | 19 µM | 16 µM |
| CC[C@H]1OC(=O)[C@H](C)[C@@H](O[C@H]2C[C@@](C)(OC)[C@@H](O)[C@H](C)O2)[C@H](C)[C@@H](O[C@@H]2O[C@H](C)C[C@H](N(C)C)[C@H]2Oc2cnc(Cl)cc2C)[C@](C)(O)C[C@@H](C)CN(C)[C@H](C)[C@@H](O)[C@]1(C)O [Example A-45] | 4 | 12 µM | 40 µM |

More lines, main results first:

| IC50 (TNF-α) [µM] | IC50 (IL-6) | Structure (SMILES) | IL-1ß OS of LPS (IL-1β) |
| --- | --- | --- | --- |
| 22 | – | CC[C@H]1OC(=O)[C@H](C)[C@@H](O)[C@H](C)[C@@H](O[C@@H]2O[C@H](C)C[C@H](N(C)C(=O)N(C)c3ccccc3)[C@H]2Oc2ccc(F)c(C(F)(F)F)c2)[C@](C)(O)C[C@@H](C)CN(C)[C@H](C)[C@@H](O)[C@]1(C)O [Example C-10] | 40 µM |
| 38 | 63 µM | CC[C@H]1OC(=O)[C@H](C)[C@@H](O)[C@H](C)[C@@H](O[C@@H]2O[C@H](C)C[C@H](N(C)C(=O)N(C)c3ncccn3)[C@H]2Oc2ccccc2)[C@](C)(O)C[C@@H](C)CN(C)[C@H](C)[C@@H](O)[C@]1(C)O [Example C-17] | 44 µM |
| 28 | 18 µM | CC[C@H]1OC(=O)[C@H](C)[C@@H](O)[C@H](C)[C@@H](O[C@@H]2O[C@H](C)C[C@H](N(C)C(=O)N(C)C3CCC3)[C@H]2Oc2ccccc2)[C@](C)(O)C[C@@H](C)CN[C@H](C)[C@@H](O)[C@]1(C)O [Example C-21] | 8 µM |
| 94 | 151 µM | CC[C@H]1OC(=O)[C@H](C)[C@@H](O)[C@H](C)[C@@H](O[C@@H]2O[C@H](C)C[C@H](N(C)C(=O)N(C)c3ncccn3)[C@H]2Oc2ccccc2)[C@](C)(O)C[C@@H](C)CN(C)[C@H](C)[C@@H](O)[C@]1(C)O [Example C-22] | 100 µM |
| 30 | – | CCCNC[C@]1(O)[C@H](C)O[C@@H](O[C@H]2[C@H](C)[C@@H](O[C@@H]3O[C@H](C)C[C@H](NC)[C@H]3Oc3ccc(OC)c(F)c3)[C@](C)(O)C[C@@H](C)CN[C@H](C)[C@@H](O)[C@](C)(O)[C@@H](CC)OC(=O)[C@@H]2C)C[C@@]1(C)OC [Example E-10] | 40 µM |
| 70 | – | CCCNC[C@]1(O)[C@H](C)O[C@@H](O[C@H]2[C@H](C)[C@@H](O[C@@H]3O[C@H](C)C[C@H](NC)[C@H]3Oc3cc(OC)c(OC)c(OC)c3)[C@](C)(O)C[C@@H](C)CN[C@H](C)[C@@H](O)[C@](C)(O)[C@@H](CC)OC(=O)[C@@H]2C)C[C@@]1(C)OC [Example E-11] | 250 µM |
| 40 | – | CCCNC[C@]1(O)[C@H](C)O[C@@H](O[C@H]2[C@H](C)[C@@H](O[C@@H]3O[C@H](C)C[C@H](NC)[C@H]3Oc3ccc(OCC)cc3)[C@](C)(O)C[C@@H](C)CN[C@H](C)[C@@H](O)[C@](C)(O)[C@@H](CC)OC(=O)[C@@H]2C)C[C@@]1(C)OC [Example E-12] | 40 µM |
| 65 | – | CCCNC[C@]1(O)[C@H](C)O[C@@H](O[C@H]2[C@H](C)[C@@H](O[C@@H]3O[C@H](C)C[C@H](N(C)C)[C@H]3Oc3cnc(OC)nc3)[C@](C)(O)C[C@@H](C)CN[C@H](C)[C@@H](O)[C@](C)(O)[C@@H](CC)OC(=O)[C@@H]2C)C[C@@]1(C)OC [Example E-27] | 100 µM |
| 16 | – | CCCNC[C@]1(O)[C@H](C)O[C@@H](O[C@H]2[C@H](C)[C@@H](O[C@@H]3O[C@H](C)C[C@H](N(C)C)[C@H]3Oc3ccc(OC)cc3)[C@](C)(O)C[C@@H](C)CN[C@H](C)[C@@H](O)[C@](C)(O)[C@@H](CC)OC(=O)[C@@H]2C)C[C@@]1(C)OC [Example E-43] | 40 µM |
| 13 | – | CCCNC[C@]1(O)[C@H](C)O[C@@H](O[C@H]2[C@H](C)[C@@H](O[C@@H]3O[C@H](C)C[C@H](N(C)C)[C@H]3Oc3ccc(F)cc3)[C@](C)(O)C[C@@H](C)CN[C@H](C)[C@@H](O)[C@](C)(O)[C@@H](CC)OC(=O)[C@@H]2C)C[C@@]1(C)OC [Example E-48] | 40 µM |
| – | 18 µM and 19 µM | CC[C@H]1OC(=O)[C@H](C)[C@@H](O[C@H]2C[C@@](C)(OC)[C@](O)(CNCC3CC3)[C@H](C)O2)[C@H](C)[C@@H](O[C@@H]2O[C@H](C)C[C@H](N(C)C)[C@H]2Oc2ccccc2)[C@](C)(O)C[C@@H](C)CN[C@H](C)[C@@H](O)[C@]1(C)O [Example E-87] | 16 µM and 26 µM |
| 30 | – | CCCNC[C@]1(O)[C@H](C)O[C@@H](O[C@H]2[C@H](C)[C@@H](O[C@@H]3O[C@H](C)C[C@H](NC)[C@H]3Oc3cccc(OC)c3)[C@](C)(O)C[C@@H](C)CN[C@H](C)[C@@H](O)[C@](C)(O)[C@@H](CC)OC(=O)[C@@H]2C)C[C@@]1(C)OC [Example E-94] | 40 µM |
| 14 | – | CC[C@H]1OC(=O)[C@H](C)[C@@H](O[C@H]2C[C@@](C)(OC)[C@](O)(CNC3CCC3)[C@H](C)O2)[C@H](C)[C@@H](O[C@@H]2O[C@H](C)C[C@H](NC)[C@H]2Oc2ccccc2)[C@](C)(O)C[C@@H](C)CN[C@H](C)[C@@H](O)[C@]1(C)O [Example E-126] | 40 µM |
| 75 | – | CC[C@H]1OC(=O)[C@H](C)[C@@H](O[C@H]2C[C@@](C)(OC)[C@](O)(CNCCN(C)C)[C@H](C)O2)[C@H](C)[C@@H](O[C@@H]2O[C@H](C)C[C@H](NC)[C@H]2Oc2ccccc2)[C@](C)(O)C[C@@H](C)CN[C@H](C)[C@@H](O)[C@]1(C)O [Example E-129] | 250 µM |
| 5 | – | CC[C@H]1OC(=O)[C@H](C)[C@@H](O[C@H]2C[C@@](C)(OC)[C@](O)(CNn3cccn3)[C@H](C)O2)[C@H](C)[C@@H](O[C@@H]2O[C@H](C)C[C@H](NC)[C@H]2Oc2ccccc2)[C@](C)(O)C[C@@H](C)CN[C@H](C)[C@@H](O)[C@]1(C)O [Example E-139] | 6 µM |
